In patent publication US6194173A, “Binding proteins for phosphoinositides, GRP1 or general receptor 1 for phophoinositide” (priority 1999, dated 2001):

T1: GRP (Mus musculus, UniProt O08967)
T1 construct: GST (N, cleaved yes); made in house; host or cells: GRP from pGEX-4T; ARF1 from baculovirus-infected Sf-9 cells
T1 sequence (O08967 1-399): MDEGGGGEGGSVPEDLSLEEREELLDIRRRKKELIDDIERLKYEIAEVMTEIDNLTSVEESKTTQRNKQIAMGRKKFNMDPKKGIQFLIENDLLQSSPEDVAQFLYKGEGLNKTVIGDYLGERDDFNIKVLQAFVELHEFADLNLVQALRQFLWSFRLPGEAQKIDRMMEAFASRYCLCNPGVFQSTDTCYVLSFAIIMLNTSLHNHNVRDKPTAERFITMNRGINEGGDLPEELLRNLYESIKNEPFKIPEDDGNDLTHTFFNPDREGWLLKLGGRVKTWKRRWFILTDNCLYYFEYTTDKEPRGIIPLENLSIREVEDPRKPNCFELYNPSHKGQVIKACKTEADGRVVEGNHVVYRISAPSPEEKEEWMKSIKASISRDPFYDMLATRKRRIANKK

T2: GSTPH(GRP) (Mus musculus, UniProt O08967)
T2 construct: residues 239 to 399 (PH domain); made in house; host or cells: bacteria
T2 sequence (O08967 239-399): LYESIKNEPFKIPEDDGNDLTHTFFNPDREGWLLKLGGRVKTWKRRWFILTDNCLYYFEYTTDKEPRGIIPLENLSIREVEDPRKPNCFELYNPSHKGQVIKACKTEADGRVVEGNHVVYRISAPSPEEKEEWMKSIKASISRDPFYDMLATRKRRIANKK

B1: GRP PH domain: GST fusion protein containing residues 239 to 399 (PH domain) (protein)
chain: T2 sequence (O08967 239-399)
modifications: GST fusion partner
B2: GRP Sec7 domain: GST fusion protein containing residues 52 to 260 (Sec7 domain) (protein, UniProt O08967 52-260, looked up, fragment)
chain: IDNLTSVEESKTTQRNKQIAMGRKKFNMDPKKGIQFLIENDLLQSSPEDVAQFLYKGEGLNKTVIGDYLGERDDFNIKVLQAFVELHEFADLNLVQALRQFLWSFRLPGEAQKIDRMMEAFASRYCLCNPGVFQSTDTCYVLSFAIIMLNTSLHNHNVRDKPTAERFITMNRGINEGGDLPEELLRNLYESIKNEPFKIPEDDGNDLTH
modifications: Sec7 domain GST fusion
B3: N-terminus of GRP: GST fusion protein containing residues 5 to 71 (protein, UniProt O08967 5-71, looked up, fragment)
chain: GGGEGGSVPEDLSLEEREELLDIRRRKKELIDDIERLKYEIAEVMTEIDNLTSVEESKTTQRNKQIA
modifications: GST fusion
B4: IRS-1PH domain: GST fusion protein containing amino acid 13-115 of murine IRS-1 (protein, UniProt P35569 13-115, looked up, fragment)
chain: VRKVGYLRKPKSMHKRFFVLRAASEAGGPARLEYYENEKKWRHKSSAPKRSIPLESCFNINKRADSKNKHLVALYTRDEHFAIAADSEAEQDSWYQALLQLHN
modifications: PH domain GST fusion

How the values were obtained:
GRP = biological target: T1, GRP; assay: Inhibition by inositol phosphates of PtdIns(3,4,5)P3-stimulated GRP-mediated ARF1 exchange; assay type: biochemical; details: 100 μM inositol phosphate, 0.05% cholate and 0.05% CHAPS
GSTPH(GRP) = biological target: T2, GSTPH(GRP); assay: Competition of [32P]PI(3,4,5)P3 binding to GST-PH by inositol phosphate head groups; set-up: species or system murine; details: for inhibition of [^32 P]PI(3,4,5)P3 binding to GST-PH(GRP): 100 μM competitor; for binding of inositol phosphate to GRP polypeptides: statement in the description
Text: (§1) To generate the GST fusion proteins, PCR reactions using the primers: […] (SEQ ID NO:9) and […] (SEQ ID NO:10) for the GST-N construct, […] (SEQ ID NO:11) and […] (SEQ ID NO:12) for the GST-Sec7 construct, […] (SEQ ID NO:13) and […] (SEQ ID NO:14) for the GSTPH construct, and […] (SEQ ID NO:15) and […] (SEQ ID NO:16) for the GSTGRP constructs. The sequences of the PCR products were verified, and cloned into pGEX-5X-3 in the EcoRI and Xba 1 sites. The bacteria were lysed and the fusion proteins were bound to gluthathione agarose according to standard procedures. Elution was effected by incubation of the beads with one volume 20 mM Hepes, 100 mM NaCl, 1 mM dithiotreitol (H buffer) supplemented with 10 mM gluthatione and 1% sodium cholate, and the eluate was dialyzed extensively against H buffer. For binding assays, protein was bound to nitrocellulose using a BIO-RAD BIO-DOT™ apparatus, using 150 pmol per well for binding assays and 7.5 pmol for competition assays. The nitrocellulose was washed in assay buffer, and 3 mm circles of the filters containing the protein were cut out and incubated in […] assay buffer with the relevant lipids and competitors for 2 h under constant agitation. The filters were washed four times with 1 mL assay buffer and counted in a scintillation counter.
The specificity of the GRP PH domain for binding [^32 P]PI(3,4,5,)P3 was also examined with respect to competition by the inositol phosphate head groups of the phosphoinositides. […] More specifically, 25,000 cpm of [^32 P]PI(3,4,5)P3 was incubated with varying concentrations of inositol 1 ,3,4,5P4 and bound radioactivity determined. The amount of radioactivity bound was calculated as percent of that bound in the absence of competitor. The values are means of quadruplicate measurements, and the error bars are standard deviations. The lack of inhibition by the latter two phosphoinositides is particularly striking since they carry the same charge as the inhibitor […] The concentration of inositol 1,3,4,5-P4 that inhibited binding of [^32 p]PI(3,4,5,)P3 half maximally was about 3-6 μM (FIG. 5A). Taken together, the data in FIGS. 4 and 5 indicate extraordinary specificity of the GRP PH domain for PI(3,4,5)P3. […] The binding to GST fusion proteins containing amino acids 462-569 of murine Sos or amino acid 13-115 of murine IRS-1 was assayed using 150 pmoles of protein bound to the filters. Competition of binding to 7.5 pmoles of GST-PH was measured in the presence of 100 μM of the competitors. The values were calculated as in (A), and are means of quadruplicate measurements and the error bars represent standard deviations.

ARF1 = ARF1 guanine nucleotide exchange ([35S]GTPγS binding); assay type: biochemical; details: [^35 S]GTPγS binding to immunoprecipitated ARF1
[1] = Binding of [32P]PI(3,4,5)P3 by GST fusion proteins spotted on nitrocellulose; details: 150 pmol protein on nitrocellulose; relative to GST
Procedure: The 3'-phosphatidylinositol probes labeled at the 3' position were generated using GST-p110 PI3-kinase purified from recombinant bacculovirus infected Sf 9 cells, using either purified phosphatidylinositol phosphates or crude brain lipid. Briefly, 20 mg phospholipid in chloroform was dried under N2 and resuspended in […] of buffer containing Tris-HCl pH 7.4, EDTA 1 mM and incubated in […] phopsphorylation media containing 20 mM Tris-HCl pH 7.4, 100 mM NaCl, 10 mM MgCl2, 0.5 mM EGTA. 0.2 mM adenosine, GST-p110 and 5-10 mCi [g-^32 P]ATP (5 Ci/umol). The reaction was carried out for 2 h at room temperature, quenched by addition of 0.2 ml of 1M HCl, followed by 0.5 ml of chloroform:methanol (1:1). The organic phase containing phospholipids was washed 4 times with 0.4 ml of methanol:HCl (1: 1) and stored at -70° C. until use. Just before use, the lipid was dried under a stream of nitrogen with phosphatidyl serine corresponding to a final concentration of 20 mg/ml. The identities of the PI3-P, PI3,4-P2 and PI3,4,5-P3 were confirmed by TLC and HPLC analysis.
as §1
In order to determine whether PI(3,4,5)P3 binding could be localized to specific sequences within the GRP structure, GST fusion proteins containing either residues 239 to 399 (PH domain), residues 52 to 260 (Sec7 domain), or residues 5 to 71, full length GRP residues 5-399 were expressed in bacteria and purified on glutathione-conjugated beads. […] 150 pmol of the proteins were spotted on nitrocellulose filters, incubated with [^32 P]PI(3,4,5)P3 and the amount of bound lipid was determined as described. The values are the means of the quadruplicate determinations, and the error bars are the standard deviations. […] Nitrocellulose filters with GST-PH were incubated with 25,000 cpm of each of the phospholipids and the amount of bound lipid determined as described above. The values are the means of quadruplicate determinations and the error bars are the standard deviations. […] Although previous work has shown that PH domain from PLCδ (Lemmon et al. (1995) supra) and various other proteins bind 4,5-polyphosphoinositide, none have been reported to preferentially associate with a 3-polyphosphoinositide. […]

| Molecule | inhibition of PtdIns(3,4,5)P3-stimulated GRP-mediated ARF1 guanine nucleotide exchange (GRP) | inhibition of [^32 P]PI(3,4,5)P3 binding to GST-PH(GRP) (GSTPH(GRP)) | binding of inositol phosphate to GRP polypeptides (GSTPH(GRP)) | ARF1 guanine nucleotide exchange (ARF1) | binding of [^32 P]PI(3,4,5)P3 by GST fusion protein [1] | further results |
| --- | --- | --- | --- | --- | --- | --- |
| O=P(O)(O)O[C@H]1[C@H](OP(=O)(O)O)[C@@H](OP(=O)(O)O)[C@H](O)[C@@H](O)[C@H]1OP(=O)(O)O (relative stereo) [Ins(1,2,5,6)P4, inositol 1,2,5,6-P4] | failed to inhibit | little or no effect | not |  |  |  |
| O=P(O)(O)O[C@H]1[C@H](O)[C@@H](O)[C@H](OP(=O)(O)O)[C@@H](OP(=O)(O)O)[C@H]1O [Ins(1,3,4)P3] | failed to inhibit |  |  |  |  |  |
| O=P(O)(O)O[C@H]1[C@H](O)[C@@H](OP(=O)(O)O)[C@H](OP(=O)(O)O)[C@@H](OP(=O)(O)O)[C@H]1O [Ins(1,3,4,5)P4, inositol 1,3,4,5-P4] | virtually ablated | markedly inhibited | bind |  |  | inhibition of PtdIns(3,4,5)P3-stimulated GRP-mediated ARF1 guanine nucleotide exchange (GRP; listed as Ins(1,3,4,5) tetrakisphosphate): selectively blocked; IC50 (GSTPH(GRP); 25,000 cpm [^32 P]PI(3,4,5)P3, GST-PH, read-out: concentration that inhibited binding of [^32 p]PI(3,4,5)P3 half maximally): 3 to 6 µM |
| O=P(O)(O)O[C@@H]1[C@@H](O)[C@H](OP(=O)(O)O)[C@@H](OP(=O)(O)O)[C@@H](O)[C@H]1OP(=O)(O)O [Ins(1,3,4,6)P4, inositol 1,3,4,6-P4] | failed to inhibit | little or no effect | not |  |  |  |
| B1 |  |  |  | no effect | extensive binding |  |
| B2 |  |  |  | high activity | No significant binding | ARF1 guanine nucleotide exchange (ARF1; listed as SEC7 homology domain): as effective as the fill length GRP; ARF1 guanine nucleotide exchange (ARF1; listed as Sec 7 domains of GRP): sufficient for catalysis |
| B3 |  |  |  | no effect | No significant binding |  |
| B4 |  |  |  |  | negligible |  |
